Assay results: patent publication US4831026A, “2-oxa-isocephem compounds, compositions containing same and processes of using” (Otsuka Pharmaceutical Co., Ltd., priority 1985, dated 1989)
Where two headings read alike, the source gives them in different places.

Legend:
[1] = tested on: E. coli NIHJ; assay: Antimicrobial activity test: MIC by the agar plate dilution method, E. coli NIHJ; assay type: cell-based; details: inoculum 1×10^6 cells/ml
Method: In order to investigate the in vitro activity of the under-mentioned compounds against various bacteria, the minimal inhibitory concentration (MIC) values were determined by the agar plate dilution method [see Chemotherapy, 22, 1126-1128 (1974)].
Each test inoculum was adjusted to 1×10^6 cells/ml (O.D., 600 mμ: 0.07-0.16).

[2] = tested on: S. marcescens IFO-12648; assay: Antimicrobial activity test: MIC by the agar plate dilution method, S. marcescens IFO-12648; assay type: cell-based
Outline: (§1)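 Inoculum 1×10^6 cells/ml, set by O.D. at 600 mμ of 0.07-0.16; minimal inhibitory concentration read on agar plates containing serial compound dilutions.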

[3] = tested on: S. aureus FDA-209-p; assay: Antimicrobial activity test: MIC by the agar plate dilution method, S. aureus FDA-209-p; assay type: cell-based, Staphylococcus aureus; details: inoculum 1×10^6 cells/ml
Outline: as §1

[4] = tested on: K. pneumoniae NCTC-9632; assay: Antimicrobial activity test: MIC by the agar plate dilution method, K. pneumoniae NCTC-9632; assay type: cell-based; details: inoculum 1×10^6 cells/ml
Outline: as §1

[5] = tested on: P. aeruginosa NCTC-10490; assay: Antimicrobial activity test: MIC by the agar plate dilution method, P. aeruginosa NCTC-10490; assay type: cell-based; details: inoculum 1×10^6 cells/ml
Outline: as §1

[6] = tested on: M. morganii ATCC-25830; assay: Antimicrobial activity test: MIC by the agar plate dilution method, M. morganii ATCC-25830; assay type: cell-based; details: inoculum 1×10^6 cells/ml
Outline: as §1

[7] = tested on: P. mirabilis 1287; assay: Antimicrobial activity test: MIC by the agar plate dilution method, P. mirabilis 1287; assay type: cell-based
Outline: as §1

[8] = tested on: E. coli No. 29; assay: Antimicrobial activity test: MIC by the agar plate dilution method, E. coli No. 29; assay type: cell-based
Outline: as §1

[9] = S. marcescens IFO-12648, inoculum 1×10^6 cells/ml
[10] = P. mirabilis 1287, inoculum 1×10^6 cells/ml
[11] = E. coli No. 29, inoculum 1×10^6 cells/ml

Substance | MIC [1] | MIC [2, 9] | MIC [3] | MIC [4] | MIC [5] | MIC [6] | MIC [7, 10] | MIC [8, 11] | MIC [2] | MIC [8] | MIC [7]
7-[2-(2-Aminothiazol-4-yl)-2-methoxyiminoacetamido]-3-[(1,4,5,6-tetrahydro-4-methyl-5,6-dioxo-1,2,4-triazin-3-yl)thiomethyl]-Δ^3 -O-2-isocephem-4-carboxylic acid (syn-isomer) [No. 4] | ≤ 0.025 µg/mL | 0.2 µg/mL | 0.78 µg/mL | ≤ 0.025 µg/mL | 50 µg/mL | ≤ 0.025 µg/mL | ≤ 0.025 µg/mL | ≤ 0.025 µg/mL |  |  | 
7-[2-(2-Aminothiazol-4-yl)-2-methoxyiminoacetamido]-3-[(carbamoyloxy)methyl]-Δ^3 -O-2-isocephem-4-carboxylic acid (syn-isomer) [No. 1] | 0.2 µg/mL |  | 0.78 µg/mL | 0.39 µg/mL | 1.56 µg/mL | 0.1 µg/mL | 0.1 µg/mL |  | 0.78 µg/mL | 0.39 µg/mL | 
7-[2-(2-Aminothiazol-4-yl)-2-methylthiomethoxyiminoacetamido]-3-[(1,3,4-thiadiazol-2-yl)thiomethyl]-Δ^3 -O-2-isocephem-4-carboxylic acid (syn-isomer) [No. 12] | ≤ 0.025 µg/mL | 0.1 µg/mL | 0.2 µg/mL | 0.05 µg/mL | 3.13 µg/mL | ≤ 0.025 µg/mL | ≤ 0.025 µg/mL | ≤ 0.025 µg/mL |  |  | 
7-[2-(2-Chloroacetamidothiazol-4-yl)-2-ethoxyiminoacetamido]-3-[(1,3,4-thiadiazol-2-yl)thiomethyl-]-Δ^3 -O-2-isocephem-4-carboxylic acid (syn-isomer) [Example 28] | ≤ 0.025 µg/mL | 0.2 µg/mL | 0.78 µg/mL | 0.05 µg/mL | 1.56 µg/mL | ≤ 0.025 µg/mL | ≤ 0.025 µg/mL | ≤ 0.025 µg/mL |  |  | 
7-[2-(2-Formamidothiazol-4-yl)-2-methylthiomethoxyiminoacetamido]-3-[(1,3,4-thiadiazol-2-yl)thiomethyl]-Δ^3 -O-2-isocephem-4-carboxylic acid (syn-isomer) [Example 45] | 0.39 µg/mL |  | 0.39 µg/mL | 0.39 µg/mL | 6.25 µg/mL | 0.39 µg/mL | 0.2 µg/mL |  | 0.78 µg/mL | 0.39 µg/mL | 
7-[2-(2-Trifluoroacetamidothiazol-4-yl)-2methoxyiminoacetamido]-3-[(carbamoyloxy)methyl]-Δ^3 -O-2-isocephem-4-carboxylic acid (syn-isomer) [No. 5] | 0.78 µg/mL |  | > 100 µg/mL | 0.2 µg/mL | 100 µg/mL | 0.2 µg/mL |  |  | 0.39 µg/mL | 0.78 µg/mL | 0.39 µg/mL
(6S,7S)-7-[2-(2-Aminothiazol-4-yl)-2cyanomethoxyiminoacetamido]-3-[(1,3,4- thiadiazol-2-yl)thiomethyl]-Δ^3 -O-2-isocephem-4carboxylic acid trifluoroacetate (syn-isomer) [No. 16] | 0.39 µg/mL |  | 0.39 µg/mL | 0.39 µg/mL | 0.39 µg/mL | 0.05 µg/mL | 0.1 µg/mL | 0.2 µg/mL | 0.78 µg/mL |  | 
Benzhydryl 7-[2-(2-aminothiazol-4-yl)-2-cyclopropylmethyloxyiminoacetamido]-3-[(1,2,3-thiadiazol-5-yl)thiomethyl]-Δ^3 -O-2-isocephem-4-carboxylate (syn-isomer) [Example 56] | 0.2 µg/mL |  | 0.05 µg/mL | 0.39 µg/mL | 0.39 µg/mL | 0.05 µg/mL | 0.2 µg/mL | 0.1 µg/mL | 0.78 µg/mL |  | 
Benzhydryl 7-[2-(2-formamidothiazol-4-yl)-2-ethoxyiminoacetamido]-3-[(1,3,4-thiadiazol-2-yl)thiomethyl]-Δ^3 -O-2-isocephem-4-carboxylate (syn-isomer) [Example 30] | 0.05 µg/mL |  | 0.1 µg/mL | 0.2 µg/mL | 25 µg/mL | 0.39 µg/mL | 0.2 µg/mL | 0.1 µg/mL | 0.39 µg/mL |  | 
Benzyl 7-[2-(2-chloroacetamidothiazol-4-yl)-2-ethoxyiminoacetamido]-3-[(1,3,4-thiadiazol-2-yl)thiomethyl]-Δ^3 -O-2-isocephem-4-carboxylate (syn-isomer) [Example 27] | 0.10 µg/mL | 0.2 µg/mL | 0.1 µg/mL | 0.2 µg/mL | 0.2 µg/mL | 0.1 µg/mL | 0.1 µg/mL | 0.1 µg/mL |  |  | 
